Experimental data as given in patent publication US12290513B2, “Therapeutic methods and compositions for treating movement disorders” (Vima Therapeutics, Inc., priority 2023, dated 2025).
Like-named read-outs stand apart in the source and are kept apart here.

How the values were obtained:
[1] = Whole blood stability, dog
Procedure: (§1) Procedures for blood Stability. • A. 398 μL of blood from each species was added to an incubation plate, which was pre-warmed at 37C for 15 minutes. • B. After the pre-incubation, 2 μL of working solution (test compounds or control compounds) was spiked to 398 μL of blood to reach a final concentration of 1 μM for test compounds and 5 μM for control compounds. The final concentration of organic solvents is 0.5%. The assays were performed in duplicate. • C. The reaction samples were incubated at 37C. • D. Aliquots of 50 μL were taken from the reaction samples at 0, 15, 30, 60 and 120 minutes. The reaction was stopped by the addition of 50 μL ultrapure water and 400 μL cold acetonitrile. • E. All samples were vortexed for 10 minutes, followed by centrifugation at 3,220 g for 40 minutes to precipitate proteins. 100 μL of the supernatant was then transferred to a new plate. The supernatant was diluted with ultrapure water as needed for detection by LC-MS/MS. Sample Analysis
(§2) Samples were analyzed by LC-MS/MS to measure the concentration of the test compounds.
(§3) All calculations were carried out using Microsoft Excel and according to standard analysis methods that are known in the art.

[2] = Whole blood stability, rat; settings: rat, blood; for Remaining Percentages (%) 0 min: 0 h, 1 μM
Procedure: as §1, §2, §3

[3] = Hepatocyte stability, human
Procedure: (§4) • 1. 10 mM stock solutions of test compounds and positive control compound were prepared in appropriate solvent (DMSO). • 2. In separate conical tubes, 10 mM test compound and positive controls were diluted to 100 μM by combining 198 μL of 50% acetonitrile/50% water and 2 μL of 10 mM stock. Preparation of Hepatocytes • 1. Incubation medium (William's E Medium supplemented with GlutaMAX) and hepatocyte thawing medium were placed in a 37C water bath and warmed for at least 15 minutes prior to use. • 2. A vial of cryopreserved hepatocytes was thawed by placing the vial in a 37C water bath and gently shaken for 2 minutes. After thawing was completed, the vial was cleaned with 70% ethanol and transferred to a biosafety cabinet. • 3. Using wide-bore pipette tips, hepatocytes were transferred into a 50 mL conical tube containing thawing medium. The 50 mL conical tube was placed into a centrifuge and spun at 100 g for 10 minutes. […] Using AO/PI Staining, cells were counted to determine the viable cell density. Cells were diluted with incubation medium to a working cell density of 0.5×10^6 viable cells/mL. Procedure for Stability Determination • 1. 198 μL of hepatocytes were pipetted into each well of a 96-well non-coated plate. The plate was placed in the incubator to allow the hepatocytes to warm for 10 minutes. • 2. 2 μL of the 100 μM test compound or positive control was pipetted into respective wells of the 96-well non-coated plate to start the reaction. The plate was returned to the incubator for the designed time points. • 3. The contents of the wells were removed in 25 μL aliquots at time points of 0.5, 15, 30, 60, 90 and 120 minutes. The aliquots were then mixed with 6 volumes (150 μL) of acetonitrile containing an internal standard, IS (100 nM alprazolam, 200 nM caffeine and 100 nM tolbutamide), to terminate the reaction. Samples were vortexed for 5 minutes and centrifuged for 45 minutes at 3,220 g. Aliquots of 100 μL of supernatant were diluted with 100 μL ultra-pure water, and the mixture was used for LC/MS/MS analysis. All incubations were performed in duplicate. Data Analysis
as §3

[4] = Hepatocyte stability, rat
Procedure: as §4, §3

[5] = Procedure: The resulting metabolites were analyzed by liquid chromatography-mass spectrometry, and metabolite peaks were detected and measured.
[6] = biological target: M4 (h) (antagonist radioligand) (Homo sapiens, UniProt P08173); settings: at the tested concentration; negative values set to zero
[7] = biological target: kappa (h) (KOP) (agonist radioligand) (Homo sapiens, UniProt P41145); settings: at the tested concentration, negative values set to zero
CYP2C8 = biological target: T1, CYP2C8 (Homo sapiens, UniProt P10632); assay: Incubation with recombinant CYP2C8; settings: for t1/2: unit not given
T1 sequence (P10632 1-490): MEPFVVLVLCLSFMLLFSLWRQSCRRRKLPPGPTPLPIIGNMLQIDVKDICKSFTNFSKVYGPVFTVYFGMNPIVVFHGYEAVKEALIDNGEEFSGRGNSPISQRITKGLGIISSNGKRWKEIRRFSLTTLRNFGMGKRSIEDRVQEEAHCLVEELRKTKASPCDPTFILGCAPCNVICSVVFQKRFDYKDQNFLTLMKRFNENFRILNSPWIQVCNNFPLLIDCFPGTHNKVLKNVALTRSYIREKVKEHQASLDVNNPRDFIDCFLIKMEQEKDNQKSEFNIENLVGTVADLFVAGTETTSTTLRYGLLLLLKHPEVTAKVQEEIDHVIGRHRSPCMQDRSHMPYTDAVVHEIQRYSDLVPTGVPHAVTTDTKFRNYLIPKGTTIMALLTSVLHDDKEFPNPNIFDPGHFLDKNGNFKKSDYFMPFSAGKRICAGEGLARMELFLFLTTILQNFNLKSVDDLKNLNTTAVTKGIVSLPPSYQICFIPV

CYP2C9 = CYP2C9 (Homo sapiens, UniProt P11712); assay: Incubation with recombinant CYP2C9; settings: for t1/2: unit not given
CYP2D6 = CYP2D6 (Homo sapiens, UniProt P10635); assay: Incubation with recombinant CYP2D6
CYP3A4 = CYP3A4 (Homo sapiens, UniProt P08684); assay: Incubation with recombinant CYP3A4
Chain of CYP3A4 (P08684 whole entry): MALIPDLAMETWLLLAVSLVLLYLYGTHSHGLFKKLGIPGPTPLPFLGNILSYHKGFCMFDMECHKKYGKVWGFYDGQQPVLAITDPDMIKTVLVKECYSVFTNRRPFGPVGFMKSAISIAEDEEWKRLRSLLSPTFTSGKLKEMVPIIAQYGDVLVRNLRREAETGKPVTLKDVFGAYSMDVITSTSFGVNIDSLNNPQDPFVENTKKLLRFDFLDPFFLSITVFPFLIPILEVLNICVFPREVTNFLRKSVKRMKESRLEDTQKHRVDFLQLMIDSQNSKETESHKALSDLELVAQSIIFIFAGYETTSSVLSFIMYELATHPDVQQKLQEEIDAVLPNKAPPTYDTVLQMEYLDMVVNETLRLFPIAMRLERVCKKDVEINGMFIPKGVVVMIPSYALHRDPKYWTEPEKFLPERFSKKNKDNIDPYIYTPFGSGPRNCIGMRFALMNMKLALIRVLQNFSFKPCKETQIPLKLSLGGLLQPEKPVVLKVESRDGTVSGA

Chain of kappa (h) (KOP) (agonist radioligand) (P41145 whole entry): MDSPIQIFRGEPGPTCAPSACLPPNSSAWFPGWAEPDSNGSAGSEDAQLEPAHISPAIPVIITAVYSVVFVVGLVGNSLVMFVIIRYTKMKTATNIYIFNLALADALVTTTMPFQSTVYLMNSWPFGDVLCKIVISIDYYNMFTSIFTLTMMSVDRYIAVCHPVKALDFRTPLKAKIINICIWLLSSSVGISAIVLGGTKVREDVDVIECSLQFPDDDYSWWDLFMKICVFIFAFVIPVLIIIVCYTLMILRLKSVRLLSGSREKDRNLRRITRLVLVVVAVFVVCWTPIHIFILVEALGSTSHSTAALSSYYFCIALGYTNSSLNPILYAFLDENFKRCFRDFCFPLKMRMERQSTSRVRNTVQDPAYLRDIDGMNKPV
Chain of CYP2C9 (P11712 whole entry): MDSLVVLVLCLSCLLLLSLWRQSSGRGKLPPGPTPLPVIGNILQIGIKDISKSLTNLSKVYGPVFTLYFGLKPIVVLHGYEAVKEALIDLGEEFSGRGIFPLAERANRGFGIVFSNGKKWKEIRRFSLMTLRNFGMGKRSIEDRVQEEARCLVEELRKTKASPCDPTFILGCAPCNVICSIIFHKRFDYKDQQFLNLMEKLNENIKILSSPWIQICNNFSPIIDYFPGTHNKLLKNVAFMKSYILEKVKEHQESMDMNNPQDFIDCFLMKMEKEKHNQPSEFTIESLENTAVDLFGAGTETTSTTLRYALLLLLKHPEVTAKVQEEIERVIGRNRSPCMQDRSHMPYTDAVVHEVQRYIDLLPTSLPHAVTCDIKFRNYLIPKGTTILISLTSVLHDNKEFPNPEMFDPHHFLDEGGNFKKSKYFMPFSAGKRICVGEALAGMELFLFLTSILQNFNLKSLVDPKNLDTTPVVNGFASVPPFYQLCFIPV
Chain of CYP2D6 (P10635 whole entry): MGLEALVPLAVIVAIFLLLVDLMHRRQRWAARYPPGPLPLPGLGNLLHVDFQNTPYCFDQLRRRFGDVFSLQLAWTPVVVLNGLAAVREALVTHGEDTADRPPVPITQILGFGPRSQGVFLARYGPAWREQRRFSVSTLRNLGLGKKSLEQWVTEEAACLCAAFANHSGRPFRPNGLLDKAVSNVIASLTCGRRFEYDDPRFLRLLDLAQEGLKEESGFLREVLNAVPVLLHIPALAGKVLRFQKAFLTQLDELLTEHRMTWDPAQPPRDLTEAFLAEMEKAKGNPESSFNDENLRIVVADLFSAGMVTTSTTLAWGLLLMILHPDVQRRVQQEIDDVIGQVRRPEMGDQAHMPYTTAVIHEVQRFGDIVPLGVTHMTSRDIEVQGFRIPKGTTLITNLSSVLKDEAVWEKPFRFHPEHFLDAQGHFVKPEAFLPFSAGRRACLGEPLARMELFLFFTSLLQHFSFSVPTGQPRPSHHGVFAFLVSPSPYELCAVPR
Chain of M4 (h) (antagonist radioligand) (P08173 whole entry): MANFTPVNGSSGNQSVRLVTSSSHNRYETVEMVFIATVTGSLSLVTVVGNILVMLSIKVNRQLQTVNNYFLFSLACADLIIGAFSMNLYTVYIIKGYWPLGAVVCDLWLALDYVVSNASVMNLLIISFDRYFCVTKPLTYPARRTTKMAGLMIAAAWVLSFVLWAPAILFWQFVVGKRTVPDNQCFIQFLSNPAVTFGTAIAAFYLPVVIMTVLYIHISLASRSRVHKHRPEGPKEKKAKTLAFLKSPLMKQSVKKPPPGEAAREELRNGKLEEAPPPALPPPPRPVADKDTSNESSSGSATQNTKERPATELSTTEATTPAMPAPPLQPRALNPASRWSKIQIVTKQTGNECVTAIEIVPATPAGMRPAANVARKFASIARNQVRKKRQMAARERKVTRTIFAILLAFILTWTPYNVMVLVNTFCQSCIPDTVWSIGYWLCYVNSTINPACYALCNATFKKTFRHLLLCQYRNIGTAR

Row | Compound | Remaining Percentages (%) 0 min ([1]; dog whole blood, 37C) [%] | t1/2 [2] | Remaining Percentages (%) 0 min [2] [%] | signal, M4 (h) (antagonist radioligand) [6] [%] | signal, kappa (h) (KOP) (agonist radioligand) [7] | CLint (CYP2C8) [µL/min/pmol] | t1/2 (CYP2C8) | CLint (CYP2C9) [µL/min/pmol] | t1/2 (CYP2C9) | Substrates of CYP2D6 (CYP2D6) | Substrates of CYP3A4 (CYP3A4) | also measured
1 | C[C@@H](C[N+](C)(C)C)OC(N)=O.[Cl-] [(S)-BTC, (S)-bethanechol] | 100.00 | ∞ | 100.00 |  |  |  |  |  |  |  |  | t1/2 ([1]; dog, blood): ∞; Predicted Hepatic CLH ([3]; hepatocytes): 0 mL/min/kg; in vitro t1/2 ([3]; hepatocytes): ∞; Predicted Hepatic CLH ([4]; hepatocytes): 0 mL/min/kg; in vitro t1/2 ([4]; hepatocytes): ∞
2 | O[C@](CCN1CCCCC1)(c1ccccc1)C1CCCCC1 [(S)-THP, (S)-trihexyphenidyl] |  |  |  | 97.82 | 34.64% | 0.00 | ∞ | 0.00 | ∞ | Rac, R and S | Rac, R and S | metabolites detected ([5]; human): two metabolites 18 and 19 were detected at substantial levels
3 | O[C@@](CCN1CCCCC1)(c1ccccc1)C1CCCCC1 [(R)-THP, (R)-trihexyphenidyl] | 100.00 | ∞ | 100.00 | 98.88 | greater than 25% | 0.00 | ∞ | 0.00 | ∞ | Rac, R and S | Rac, R and S | t1/2 ([1]; dog whole blood, 37C): ∞; CLint scaled at 1 μM ([3]; cryopreserved hepatocytes): 55.7 mL/min/kg; half-life at 1 μM ([3]; cryopreserved hepatocytes): 63.3 min; hepatocyte CLint at 1 μM ([3]; cryopreserved hepatocytes): 21.9 µL/min/1e6 cells; CLint scaled at 1 μM ([4]; cryopreserved hepatocytes): 4420 mL/min/kg; half-life at 1 μM ([4]; cryopreserved hepatocytes): 1.47 min; hepatocyte CLint at 1 μM ([4]; cryopreserved hepatocytes): 945 µL/min/1e6 cells; metabolites detected [5]: no (R)-THP metabolites were present at a significant level above parent molecule; signal, kappa (h) (KOP) (agonist radioligand) ([7]; listed as R-THP): 26.19%; half-life (CYP3A4; human): 30.7 min
